From patent US8017828B2, “Utilization of rare sugars in plant or microorganism” (Shikoku Research Institute Incorporated, priority 2004, dated 2011)

What was measured:
[1] = test system: cherry tomato plant “mini carol”; experiment: Growth of cherry tomato seedlings with D-allose in nutrient solution; type: in vivo; set-up: key to Number of opening flowers: z: Bud formation could not be confirmed; details: for Fresh leaf weight / Fresh stem weight / Number of leaves / Number of opening flowers / Stem diameter / Stem length: 4 weeks
Protocol: On Jul. 13, 2004, seeds of a cherry tomato plant “mini carol” (Sakata Seed Co., Ltd.) were sown one by one in the respective holes using 30 holes among the 253 holes of a rockwool (280 mm (width)×580 mm (length)), which was placed in a plastic container with a capacity of 8 L. In this plastic container, 1 L of each nutrient solution in which a fertilizer (Otsuka No. 1 (1.5 g/L) and Otsuka No. 2 (1.0 g/L)) was dissolved was poured, then, the cultivation was carried out in a glass chamber without heating. With regard to a treated plot, 7 treated plots in which a treatment liquid obtained by adding D-allose at 0 to 5 mM to the fertilizer nutrient solution was poured in the plastic container from July 20 when the seeds germinated completely were prepared. Incidentally, the treatment liquid was added in the same amount to the respective treated plots according to need. A survey was carried out with regard to the growth at 4 weeks after the initiation of the treatment.

[2] = test system: Fusarium oxysporum IFO 31213 strain; experiment: Infection of treated tomato seeds on agar with Fusarium oxysporum; type: in vivo, tomato plant (variety: “House Momotaro”)
Protocol: Therefore, by using a tomato plant and a strain of Fusarium oxysporum, which is a typical pathogenic bacterium of tomato, an effect of D-psicose during infection was examined.
To be more specific, seeds of a tomato plant (variety: “House Momotaro”) were subjected to an immersion treatment by immersing them in a D-psicose solution at a concentration of from 0.01% (w/v) to 0.1% (w/v) for 15 minutes while stirring slowly, followed by air-drying on sterile gauze, and then used as treated seeds. At the center of a plastic dish with a diameter of 9 cm filled with 25 ml of 1% (w/v) agar, a mycelial disc (diameter: 1 cm) obtained by pushing out Fusarium oxysporum (IFO 9967 strain and IFO 31213 strain) cultured for 1 week on a potato dextrose agar medium using a cork borer along with the agar medium was placed, and 10 seeds of the above treated seeds were placed equally spaced around the disc. At this time, test plots in which D-psicose was added to the agar medium at a concentration of from 0.01% (w/v) to 0.1% (w/v) were prepared. Then, the dishes were placed at 23° C. under the dark condition for 7 days to 10 days, and observation was carried out with regard to the elongation of shoot, the elongation of root, the shoot development rate, the infection state in root and the like.

[3] = test system: strawberry plant (variety: “Sachinoka”); experiment: Spraying of sugar solution during soilless culture of strawberry; type: in vivo; details: 0.2% (w/v) sprayed weekly
Protocol: In the process of cultivation of strawberry, an effect of spraying D-psicose was examined.
A strawberry plant (variety: “Sachinoka”) was used in an experiment. Strawberry seedlings were transplanted for permanent planting to a mixed culture medium of rockwool and peat moss, and then, by using Otsuka A prescription hydroponic nutrient solution, soilless culture was carried out in a glass house. During the cultivation, on a weekly basis, water, a 0.2% (w/v) D-glucose solution or a 0.2% (w/v) D-psicose solution was sprayed onto the whole plant. As for the number of strawberry plants, 17, 19 and 18 plants were used for the groups, respectively, and permanent planting was carried out on Sep. 24, 2004, and spraying was started from Oct. 22, 2004. A survey was carried out with regard to the growth conditions, the yield of fruits, the quality of fruits and the like by Mar. 7, 2005.

[4] = test system: Arabidopsis thaliana Lan dsberg erecta (LER); experiment: Germination of Arabidopsis thaliana with 8 ketoses; type: in vivo; details: 100 mM aqueous solution
Protocol: An effect of 8 types of ketoses on germination of Arabidopsis thaliana LER series which was an experimental plant was examined.
Two sheets of filter paper were placed in a dish with a diameter of 3.5 cm, and 30 seeds of Arabidopsis thaliana Lan dsberg erecta (LER) were sown per dish, and 0.5 mL of a treatment liquid was poured therein. Then, the dishes were placed in an environment control chamber under the condition of a constant temperature of 25° C. and 24-hour day length (fluorescent lamp, 70 μmol/m^2/s). After the sowing, a survey was carried out with regard to the number of seeds that germinated at 24-hour interval. As the treatment liquid, 100 mM, 10 mM and 1 mM aqueous solutions of any of D-fructose, D-psicose, D-tagatose, D-sorbose, L-fructose, L-psicose, L-tagatose and L-sorbose, and distilled water were used. The procedure was repeated three times for the respective treatment liquids.

[5] = D-psicose seed 0.01%, medium 0.01%
[6] = D-psicose seed 0.01%, medium non
[7] = D-psicose seed 0.05%, medium 0.05%
[8] = D-psicose seed 0.05%, medium non
[9] = D-psicose seed 0.10%, medium 0.10%
[10] = D-psicose seed 0.10%, medium non
[11] = seeds treated, and seeds treated plus agar medium

O=C[C@H](O)[C@H](O)[C@H](O)[C@H](O)CO [D-allose]
flowering ([1]; 0.01 mM): promoting flowering
promotion of growth in the stem length in comparison with the untreated plot ([1]; 0.01 mM): 33%
promotion of growth in the stem weight in comparison with the untreated plot ([1]; 0.01 mM): 67%
growth ([1]; 5 mM): some growth inhibition
Fresh leaf weight ([1]; D-allose 0.01 mM): 10.9 g
Fresh stem weight ([1]; D-allose 0.01 mM): 16.4 g
Number of leaves ([1]; D-allose 0.01 mM): 9.3
Number of opening flowers ([1]; D-allose 0.01 mM): 0.6
Stem diameter ([1]; D-allose 0.01 mM): 5.3 mm
Stem length ([1]; D-allose 0.01 mM): 69.1 cm
Fresh leaf weight ([1]; D-allose 0.05 mM): 6.9 g
Fresh stem weight ([1]; D-allose 0.05 mM): 11.7 g
Number of leaves ([1]; D-allose 0.05 mM): 8.9
Number of opening flowers ([1]; D-allose 0.05 mM): 0.4
Stem diameter ([1]; D-allose 0.05 mM): 4.3 mm
Stem length ([1]; D-allose 0.05 mM): 60.9 cm
Fresh leaf weight ([1]; D-allose 0.1 mM): 8.6 g
Fresh stem weight ([1]; D-allose 0.1 mM): 11.1 g
Number of leaves ([1]; D-allose 0.1 mM): 9.0
Number of opening flowers ([1]; D-allose 0.1 mM): 0.0
Stem diameter ([1]; D-allose 0.1 mM): 4.3 mm
Stem length ([1]; D-allose 0.1 mM): 56.7 cm
Fresh leaf weight ([1]; D-allose 0.5 mM): 8.3 g
Fresh stem weight ([1]; D-allose 0.5 mM): 11.2 g
Number of leaves ([1]; D-allose 0.5 mM): 8.3
Number of opening flowers ([1]; D-allose 0.5 mM): 0.0
Stem diameter ([1]; D-allose 0.5 mM): 4.5 mm
Stem length ([1]; D-allose 0.5 mM): 57.0 cm
Fresh leaf weight ([1]; D-allose 1.0 mM): 9.7 g
Fresh stem weight ([1]; D-allose 1.0 mM): 13.7 g
Number of leaves ([1]; D-allose 1.0 mM): 9.6
Number of opening flowers ([1]; D-allose 1.0 mM): 0.0
Stem diameter ([1]; D-allose 1.0 mM): 4.8 mm
Stem length ([1]; D-allose 1.0 mM): 59.0 cm
Fresh leaf weight ([1]; D-allose 5.0 mM): 4.8 g
Fresh stem weight ([1]; D-allose 5.0 mM): 6.7 g
Number of leaves ([1]; D-allose 5.0 mM): 7.0
Number of opening flowers ([1]; D-allose 5.0 mM): z
Stem diameter ([1]; D-allose 5.0 mM): 4.2 mm
Stem length ([1]; D-allose 5.0 mM): 40.4 cm

O=C(CO)[C@H](O)[C@H](O)[C@H](O)CO [D-psicose]
mycelial elongation of Fusarium oxysporum ([2]; D-psicose added to the agar medium): inhibited
Root length [2, 5]: 4.7 cm
Shoot length [2, 5]: 4.5 cm
Root length [2, 6]: 3.9 cm
Shoot length [2, 6]: 4.7 cm
Root length [2, 7]: 3.5 cm
Shoot length [2, 7]: 4.5 cm
Root length [2, 8]: 3.8 cm
Shoot length [2, 8]: 4.2 cm
Root length [2, 9]: 2.1 cm
Shoot length [2, 9]: 2.9 cm
Root length [2, 10]: 3.2 cm
Shoot length [2, 10]: 3.0 cm
browning caused by infection of roots with Fusarium oxysporum [2, 11]: reduction
shoot development rate [2, 11]: improvement
acidity in the fruit [3]: improvement
content of vitamin C in the fruit [3]: improvement
flower-bud formation [3]: promotion
growth and total yield [3]: no significant difference
harvesting time [3]: acceleration
inhibition of germination [4]: clearly inhibited
